Reference: patent publication US20070155752A1, “2-Amino-o4-substituted pteridines and their use as inactivators of o6-alkylguanine-dna alkyltransferase” (Government of the United States of America,, priority 2004, published 2007)
Read-outs that look alike come from different tables or passages of the source. Marks after values point to notes of the source that are not given here.

Key:
[1] = test system: KB nasopharyngeal tumor cells; test: Colony-forming cytotoxicity assay with BCNU, KB cells; assay type: cell-based; settings: 40 μM or 80 μM BCNU, 2 hr exposure in folate free medium
Description: (§1) 2-Amino-O^4-benzyl-6-carboxypteridine (5) is not effective probably because the negative charge on the molecule at physiological pH prevents its easy entry into cells. However, even though O^4-benzylfolic acid is also anionic at physiological pH, it does enhance cell killing by BCNU. Furthermore, its effectiveness as an adjuvant is a function of the cells' ability to express the α-form of the folic acid receptor. […] KB cell killing by 80 μM BCNU in combination with 7 is also illustrated. For these experiments (FIG. 2) cells were grown in RPMI medium, were incubated with 7 for 2 hr and were then treated with either 40 μM BCNU (A549, HT29 and KB cells) or 80 μM BCNU (KB cells) for 2 hr. The medium was then replaced with fresh medium containing no 7. Cells were kept for 16-18 hr before being replated. […]
(§2) Cells were grown either in Dulbecco's modified Eagle's medium supplemented with 10% fetal bovine serum plus 1.5 mM glutamine and 50 μg/mL gentamycin (HT29) or in RPMI 1640 medium in the presence of 10% fetal bovine serum (HT29, A549 and KB cells). The effect of AGT inactivators on the sensitivity of cells to BCNU was determined using a colony-forming assay.^13 Cells were plated at a density of 10^6 in 25-cm^2 flasks and 24 h later were incubated with different concentrations of AGT inactivator for 2 h before exposure to 40 μM (HT29 cells and A549 cells) or 80 μM (KB cells) of BCNU for 2 h. […]

HT29 cells = settings: for Enhancement of HT29 cell killing by BCNU / ED90, concentration required to kill 90% of HT29 cells with BCNU: BCNU 40 μM
A549 lung tumor cells = test: Colony-forming cytotoxicity assay with BCNU, A549 cells; assay type: cell-based; settings: 40 μM BCNU, 2 hr exposure in folate free medium
Description: as §1, §2

[2] = biological target: T1, P140K mutant alkyltransferase (Homo sapiens, UniProt P16455, P140K); settings: cited from earlier work
T1 construct: His tag
T1 sequence (P16455 1-207 P140K): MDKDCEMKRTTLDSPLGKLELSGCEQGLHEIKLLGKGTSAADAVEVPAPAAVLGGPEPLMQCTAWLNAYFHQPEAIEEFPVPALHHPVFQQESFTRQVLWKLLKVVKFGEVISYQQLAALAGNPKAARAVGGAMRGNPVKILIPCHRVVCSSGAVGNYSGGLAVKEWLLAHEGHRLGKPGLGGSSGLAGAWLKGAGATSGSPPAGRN

[3] = RPMI medium, inactivator present before and during BCNU only
[4] = Dulbecco's medium, inactivator present before, during and after BCNU for 16-18 hours

With `Nc1nc(OCc2ccccc2)c2nc(CNc3ccc(C(=O)N[C@@H](CCC(=O)O)C(=O)O)cc3)cnc2n1` [Compound 7, O^4-Benzylfolic acid] the “Effectiveness as an adjuvant for cell killing by BCNU (FIG. 2)” value (“Effectiveness as an adjuvant” below) [1] was “greatest”, the “Enhancement of HT29 cell killing by BCNU” value (HT29 cells) was “capable of enhancing” and the “ED90, concentration required to kill 90% of HT29 cells with BCNU” value (“ED90 … to kill 90% of HT29 cells with BCNU” below) (HT29 cells; RPMI folate-free medium) was 15 µM. The “ED90 … to kill 90% of HT29 cells with BCNU” value (HT29 cells; [3]) was 24^c,d μM, the “Effectiveness as an adjuvant” value (HT29 cells; HT29 cells, 40 μM BCNU, 2 hr exposure in folate free medium) was “somewhat greater” and the “Effectiveness as an adjuvant” value (A549 lung tumor cells) was “lowest”.

In the case of `Nc1nc(OCc2ccccc2)c2nc[nH]c2n1` [O^6-benzylguanine, reference compound], the “ED90 … to kill 90% of HT29 cells with BCNU” value (HT29 cells; [4]) is listed as 0.4^b μM, the “ED90 … to kill 90% of HT29 cells with BCNU” value (HT29 cells; [3]) is listed as 0.7^c μM and the “Inactivation of the P140K mutant alkyltransferase” value [2] is listed as “essentially resistant”.

In the case of `Nc1nc(OCc2ccccc2)c2nccnc2n1` [Compound 1, 2-amino-O^4-benzylpteridine], the “Enhancement of HT29 cell killing by BCNU” value (HT29 cells) is reported as “capable of enhancing” and the “ED90 … to kill 90% of HT29 cells with BCNU” value (HT29 cells; [4]) is reported as 0.2^b μM.

With `Nc1nc(OCc2ccccc2)c2nc(C(=O)O)cnc2n1` [Compound 5, 2-Amino-O^4-benzylpteridine-6-carboxylic acid] the “Enhancement of HT29 cell killing by BCNU” value (HT29 cells) was “not effective” and the “ED90 … to kill 90% of HT29 cells with BCNU” value (HT29 cells; [4]) was “inactive”.

With `Nc1nc(OCc2ccccc2)c2nc(C=O)cnc2n1` [Compound 6, 2-Amino-O^4-benzyl-6-formylpteridine] the “Enhancement of HT29 cell killing by BCNU” value (HT29 cells) was “capable of enhancing” and the “ED90 … to kill 90% of HT29 cells with BCNU” value (HT29 cells; [3]) was 0.7^c μM.

For `Nc1nc(OCc2ccccc2)c2nc(CO)cnc2n1` [Compound 4, 2-Amino-O^4-benzyl-6-hydroxymethylpteridine], the “Enhancement of HT29 cell killing by BCNU” value (HT29 cells) was “capable of enhancing” and the “ED90 … to kill 90% of HT29 cells with BCNU” value (HT29 cells; [4]) was 0.7^b μM.

For `Cc1nc2nc(N)nc(OCc3ccccc3)c2nc1C` [Compound 2, 2-amino-O^4-benzyl-6,7-dimethylpteridine], the “Enhancement of HT29 cell killing by BCNU” value (HT29 cells) was “capable of enhancing” and the “ED90 … to kill 90% of HT29 cells with BCNU” value (HT29 cells; [4]) was 0.6^b μM.
